US20200270309A1, “MALEIMIDE GROUP-MODIFIED ANGIOGENESIS INHIBITOR HM-1 AND USE THEREOF” (NANJING ANJI BIOLOGICAL TECHNOLOGY CO., LTD, priority 2017, published 2020)
Marks after values point to notes of the source that are not given here. Peptide text beside a SMILES is read from it. * marks the point of attachment. X84 = O=C1C=CC(=O)N1c1ccccc1CCCCCCCCCCCCC(=O)*; X68 = O=C1C=CC(=O)N1c1ccccc1CCCCCCCCCCCC(=O)*; X72 = O=C1C=CC(=O)N1c1ccccc1CCCCCCCCCCC(=O)*; X60 = O=C1C=CC(=O)N1c1ccccc1CCCCCCCCCC(=O)*; X55 = O=C1C=CC(=O)N1c1ccccc1CCCCCCCCC(=O)*; X52 = O=C1C=CC(=O)N1c1ccccc1CCCCCCCC(=O)*; X63 = O=C1C=CC(=O)N1c1ccccc1CCCCCCC(=O)*; X49 = O=C1C=CC(=O)N1c1ccccc1CCCCCC(=O)*; X61 = O=C1C=CC(=O)N1c1cccc(CCCC(=O)*)c1; X79 = O=C1C=CC(=O)N1c1cccc(CCC(=O)*)c1; X75 = O=C1C=CC(=O)N1c1cccc(CC(=O)*)c1

What was measured:
[1] = test system: corneal neovascularization; assay: Corneal neovascularization induced by alkali burn in BALB/c mice; format: in vivo; parameters: Inhibition rate (corneal neovascularization): concentration or dose not given beside the values; settings: day 14 after alkali burn, vitreous injection once a day for 1 week
[2] = test system: retinal neovascularization (OIR model); assay: Retinal vessels in OIR mice; format: in vivo, C57/B16 mice; settings: for Area of neovascular plexus (mm^2): dose 0.05 μM in the vitreous chamber on day 13, retinal vessels evaluated on day 17; for Inhibition rate (%): dose 0.05 μM in the vitreous chamber on day 13, retinal vessels evaluated on day 17, vs negative control
Text: Establishment of an OIR model: Young mice and their mothers were exposed in a 75% hyperoxic environment from day 7 to day 12 after the birth of C57/B16 mice, which caused capillaries in their central retina to disappear rapidly. The mice were returned to the indoor air on day 12, retinal vessels exposed to hyperoxia quickly disappeared, causing extensive abnormal neoangiogenesis, and the central part of the retina remained largely avascular for a long time. After the blood vessels disappeared completely, the mice were injected with normal saline (a negative group), X1-X12, X13-X44, X45-X90 in the vitreous chamber on day 13 respectively, and retinal vessels were evaluated on day 17 ([…] of Texas red labeled tomato agglutinin was injected into the left ventricle to mark unclosed vessels and circulated for 5 min).

[3] = Half-lives and pharmacokinetic parameters of polypeptides vs HM-1; settings: in vivo; for half-life: T1/2β (half-life)

| Structure (SMILES) | AUC(0-inf) [3] [ng·h/mL] | MRT inf [3] [h] | clearance [3] [mL/min/kg] | half-life [3] [h] | Inhibition rate (corneal neovascularization) [1] [%] | MVD (corneal microvessel density) [1] | Area of neovascular plexus (mm^2) [2] [mm^2] | Inhibition rate (%) [2] |
| --- | --- | --- | --- | --- | --- | --- | --- | --- |
| C[C@H](NC(=O)CNC(=O)[C@H](CCCNC(=N)N)NC(=O)CCCCCc1ccccc1N1C(=O)C=CC1=O)C(=O)N[C@@H](CC(=O)O)C(=O)N[C@@H](CCCNC(=N)N)C(=O)N[C@@H](C)C(=O)NCC(=O)NCC(=O)NCC(=O)NCC(=O)N[C@@H](CCCNC(=N)N)C(=O)NCC(=O)N[C@@H](CC(=O)O)C(=O)O [X17] (X49-RGADRAGGGGRGD-OH) | 30000 ± 7060 | 53.8 ± 12.3 | 0.555 | 37.26 ± 0.29 | 48.05 | 34.93 ± 4.725 | 0.084 ± 0.009 | 60.38%** |
| C[C@H](NC(=O)CNC(=O)[C@H](CCCNC(=N)N)NC(=O)CCCCCCc1ccccc1N1C(=O)C=CC1=O)C(=O)N[C@@H](CC(=O)O)C(=O)N[C@@H](CCCNC(=N)N)C(=O)N[C@@H](C)C(=O)NCC(=O)NCC(=O)NCC(=O)NCC(=O)N[C@@H](CCCNC(=N)N)C(=O)NCC(=O)N[C@@H](CC(=O)O)C(=O)O [X18] (X63-RGADRAGGGGRGD-OH) | 27200 ± 7310 | 48.7 ± 14.1 | 0.613 | 33.75 ± 0.27 | 50.18 | 33.50 ± 5.649 | 0.119 ± 0.011 | 43.87%* |
| C[C@H](NC(=O)CNC(=O)[C@H](CCCNC(=N)N)NC(=O)CCCCCCCc1ccccc1N1C(=O)C=CC1=O)C(=O)N[C@@H](CC(=O)O)C(=O)N[C@@H](CCCNC(=N)N)C(=O)N[C@@H](C)C(=O)NCC(=O)NCC(=O)NCC(=O)NCC(=O)N[C@@H](CCCNC(=N)N)C(=O)NCC(=O)N[C@@H](CC(=O)O)C(=O)O [X19] (X52-RGADRAGGGGRGD-OH) | 32200 ± 6970 | 57.6 ± 10.8 | 0.518 | 39.95 ± 0.28 | 41.43 | 39.38 ± 4.833 | 0.083 ± 0.019 | 60.85%** |
| C[C@H](NC(=O)CNC(=O)[C@H](CCCNC(=N)N)NC(=O)CCCCCCCCc1ccccc1N1C(=O)C=CC1=O)C(=O)N[C@@H](CC(=O)O)C(=O)N[C@@H](CCCNC(=N)N)C(=O)N[C@@H](C)C(=O)NCC(=O)NCC(=O)NCC(=O)NCC(=O)N[C@@H](CCCNC(=N)N)C(=O)NCC(=O)N[C@@H](CC(=O)O)C(=O)O [X20] (X55-RGADRAGGGGRGD-OH) | 31800 ± 8320 | 57.1 ± 12.9 | 0.523 | 39.56 ± 0.28 | 44.62 | 37.24 ± 6.113 | 0.118 ± 0.014 | 44.34%* |
| C[C@H](NC(=O)CNC(=O)[C@H](CCCNC(=N)N)NC(=O)CCCCCCCCCc1ccccc1N1C(=O)C=CC1=O)C(=O)N[C@@H](CC(=O)O)C(=O)N[C@@H](CCCNC(=N)N)C(=O)N[C@@H](C)C(=O)NCC(=O)NCC(=O)NCC(=O)NCC(=O)N[C@@H](CCCNC(=N)N)C(=O)NCC(=O)N[C@@H](CC(=O)O)C(=O)O [X21] (X60-RGADRAGGGGRGD-OH) | 34000 ± 8190 | 60.9 ± 9.41 | 0.49 | 42.24 ± 0.28 | 45.93 | 36.36 ± 3.663 | 0.118 ± 0.012 | 44.34%* |
| C[C@H](NC(=O)CNC(=O)[C@H](CCCNC(=N)N)NC(=O)CCCCCCCCCCc1ccccc1N1C(=O)C=CC1=O)C(=O)N[C@@H](CC(=O)O)C(=O)N[C@@H](CCCNC(=N)N)C(=O)N[C@@H](C)C(=O)NCC(=O)NCC(=O)NCC(=O)NCC(=O)N[C@@H](CCCNC(=N)N)C(=O)NCC(=O)N[C@@H](CC(=O)O)C(=O)O [X22] (X72-RGADRAGGGGRGD-OH) | 28200 ± 7980 | 50.5 ± 13.6 | 0.59 | 35.03 ± 0.27 | 46.70 | 35.84 ± 6.594 | 0.082 ± 0.005 | 61.32%** |
| C[C@H](NC(=O)CNC(=O)[C@H](CCCNC(=N)N)NC(=O)CCCCCCCCCCCc1ccccc1N1C(=O)C=CC1=O)C(=O)N[C@@H](CC(=O)O)C(=O)N[C@@H](CCCNC(=N)N)C(=O)N[C@@H](C)C(=O)NCC(=O)NCC(=O)NCC(=O)NCC(=O)N[C@@H](CCCNC(=N)N)C(=O)NCC(=O)N[C@@H](CC(=O)O)C(=O)O [X23] (X68-RGADRAGGGGRGD-OH) | 25600 ± 8510 | 45.8 ± 10.6 | 0.652 | 31.72 ± 0.25 | 46.95 | 35.67 ± 6.861 | 0.101 ± 0.002 | 52.36%** |

Further lines, with some results ahead:

| AUC(0-inf) [3] [ng·h/mL] | MRT inf [3] [h] | clearance [3] [mL/min/kg] | half-life [3] [h] | Structure (SMILES) | Inhibition rate (corneal neovascularization) [1] [%] | MVD (corneal microvessel density) [1] | Area of neovascular plexus (mm^2) [2] [mm^2] | Inhibition rate (%) [2] |
| --- | --- | --- | --- | --- | --- | --- | --- | --- |
| 29700 ± 7580 | 53.1 ± 13.5 | 0.562 | 36.77 ± 0.29 | C[C@H](NC(=O)CNC(=O)[C@H](CCCNC(=N)N)NC(=O)CCCCCCCCCCCCc1ccccc1N1C(=O)C=CC1=O)C(=O)N[C@@H](CC(=O)O)C(=O)N[C@@H](CCCNC(=N)N)C(=O)N[C@@H](C)C(=O)NCC(=O)NCC(=O)NCC(=O)NCC(=O)N[C@@H](CCCNC(=N)N)C(=O)NCC(=O)N[C@@H](CC(=O)O)C(=O)O [X24] (X84-RGADRAGGGGRGD-OH) | 46.24 | 36.15 ± 4.199 | 0.107 ± 0.012 | 49.53%* |
| 24600 ± 7530 | 44.1 ± 10.7 | 0.677 | 30.6 ± 0.32 | C[C@H](NC(=O)CNC(=O)[C@H](CCCNC(=N)N)NC(=O)Cc1cccc(N2C(=O)C=CC2=O)c1)C(=O)N[C@@H](CC(=O)O)C(=O)N[C@@H](CCCNC(=N)N)C(=O)N[C@@H](C)C(=O)NCC(=O)NCC(=O)NCC(=O)NCC(=O)N[C@@H](CCCNC(=N)N)C(=O)NCC(=O)N[C@@H](CC(=O)O)C(=O)O [X25] (X75-RGADRAGGGGRGD-OH) | 52.90 | 31.67 ± 6.856 | 0.096 ± 0.012 | 54.72%** |
| 34600 ± 8340 | 62 ± 9.63 | 0.482 | 42.95 ± 0.36 | C[C@H](NC(=O)CNC(=O)[C@H](CCCNC(=N)N)NC(=O)CCc1cccc(N2C(=O)C=CC2=O)c1)C(=O)N[C@@H](CC(=O)O)C(=O)N[C@@H](CCCNC(=N)N)C(=O)N[C@@H](C)C(=O)NCC(=O)NCC(=O)NCC(=O)NCC(=O)N[C@@H](CCCNC(=N)N)C(=O)NCC(=O)N[C@@H](CC(=O)O)C(=O)O [X26] (X79-RGADRAGGGGRGD-OH) | 44.32 | 37.44 ± 4.646 | 0.104 ± 0.001 | 50.94%** |
| 26200 ± 7250 | 46.9 ± 9.74 | 0.635 | 32.52 ± 0.25 | C[C@H](NC(=O)CNC(=O)[C@H](CCCNC(=N)N)NC(=O)CCCc1cccc(N2C(=O)C=CC2=O)c1)C(=O)N[C@@H](CC(=O)O)C(=O)N[C@@H](CCCNC(=N)N)C(=O)N[C@@H](C)C(=O)NCC(=O)NCC(=O)NCC(=O)NCC(=O)N[C@@H](CCCNC(=N)N)C(=O)NCC(=O)N[C@@H](CC(=O)O)C(=O)O [X27] (X61-RGADRAGGGGRGD-OH) | 43.93 | 37.70 ± 3.805 | 0.106 ± 0.002 | 50.00%** |
